Assay results published in publication PMC11898488, “A2A Adenosine Receptor Antagonists and Their Efficacy in Rat Models of Parkinson’s Disease” (Cells, 2025).
Entries after “also recorded” stand apart in the source; their conditions may differ. Where two headings read alike, the source gives them in different places.

How the values were obtained:
[1] = tested on: catalepsy induced by haloperidol; assay: Haloperidol-induced catalepsy, vertical grid test; format: in vivo, rat; settings: rats; for Effect on catalepsy induced by haloperidol: 5 mg/kg i.p. given 90 min after haloperidol 0.2 mg/kg s.c., 90 min testing period; for Duration of anticataleptic effect: 5 mg/kg i.p., haloperidol 0.2 mg/kg s.c., time after drug administration
Procedure: Male Sprague Dawley rats (200–300 g, Charles River, Calco, Italy) were housed in groups of 4–6 in standard polycarbonate cages with sawdust bedding and maintained on a 12 h light/dark cycle (lights on at 8:00 am). Food and water were freely available. All experiments were conducted in accordance with the guidelines for animal experimentation of the EU directives (2010/63/EU; L.276; 22 September 2010) and approved by the Committee on Animal Experimentation (CESA; protocol code 29456, 21 March 2012) of the University of Cagliari. Experiments were designed to minimize animal discomfort and to reduce the number of animals used.
Catalepsy was estimated using the vertical grid test. The test was carried out by placing a rat with the four paws on a wire grid (43–25 cm) at an angle of about 70° in respect to the bench surface. Catalepsy was determined by measuring the time in which the rat maintained a given position. The test was terminated when the rat moved one paw or when 90 s had elapsed from the placement of the rat on the grid. Catalepsy assessments were repeated every 10–15 min intervals. […] A2AAR antagonists were injected 90 min after haloperidol administration to evaluate their effects on deeply cataleptic rats. […]
For catalepsy evaluation, the mean and S.E.M. of the seconds of immobility during each test section were calculated. Significant differences between groups were evaluated by one-way analysis of variance (ANOVA) followed by a Newman–Keuls post hoc test.
After 40 min of haloperidol administration (0.2 mg/kg s.c.), a significant catalepsy was induced in rats, which reached its maximum at 60–70 min [18, 24]. Therefore, the administration of the A2AAR antagonists was made 90 min after haloperidol to evaluate their effects on deeply cataleptic rats.

human A2AAR = target: T1, human A2AAR (Homo sapiens, UniProt P29274); settings: [3H]-NECA displacement, human A2AAR in CHO cells; geometric mean with 95% confidence limits; read-out: Ki A2A; cited from earlier work
T1 construct: expressed in transfected cells; host or cells: CHO cells, crude membrane fractions
T1 sequence (P29274 whole entry): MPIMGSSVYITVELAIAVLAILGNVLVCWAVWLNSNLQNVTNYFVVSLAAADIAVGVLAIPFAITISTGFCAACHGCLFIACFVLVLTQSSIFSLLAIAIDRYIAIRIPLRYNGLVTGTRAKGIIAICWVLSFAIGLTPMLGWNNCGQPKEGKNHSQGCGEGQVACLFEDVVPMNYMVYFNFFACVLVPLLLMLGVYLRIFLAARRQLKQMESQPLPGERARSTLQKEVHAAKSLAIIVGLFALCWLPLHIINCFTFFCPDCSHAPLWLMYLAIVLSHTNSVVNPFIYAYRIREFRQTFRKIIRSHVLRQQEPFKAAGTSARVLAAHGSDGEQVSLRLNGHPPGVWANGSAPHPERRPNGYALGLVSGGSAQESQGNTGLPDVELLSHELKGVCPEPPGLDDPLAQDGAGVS

human A3AR [2] = target: T2, human A3AR (Homo sapiens, UniProt P0DMS8); settings: [3H]-NECA displacement, human A3AR in CHO cells; geometric mean with 95% confidence limits; read-out: Ki A3; cited from earlier work
T2 construct: expressed in transfected cells; host or cells: CHO cells, crude membrane fractions
T2 sequence (P0DMS8 1-318): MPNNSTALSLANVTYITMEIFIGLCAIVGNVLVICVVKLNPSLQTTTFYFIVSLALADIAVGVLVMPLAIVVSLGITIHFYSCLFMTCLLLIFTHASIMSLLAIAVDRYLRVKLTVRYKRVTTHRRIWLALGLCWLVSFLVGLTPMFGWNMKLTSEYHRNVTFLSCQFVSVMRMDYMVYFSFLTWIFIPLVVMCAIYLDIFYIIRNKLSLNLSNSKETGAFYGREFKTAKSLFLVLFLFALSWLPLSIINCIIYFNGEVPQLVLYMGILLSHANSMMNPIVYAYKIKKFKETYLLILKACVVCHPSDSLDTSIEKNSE

human A3AR [3] = target: T2, human A3AR; assay: Radioligand binding, displacement of [3H]NECA at human A3AR in CHO cells; settings: [3H]-NECA displacement, geometric mean with 95% confidence limits, read-out: Ki A3
Procedure: (§1) The radioligand binding experiments were carried out exactly as described previously. For A1AR binding, 1 nM [^3H]CCPA was used as a radioligand, whereas 30 and 10 nM [^3H]NECA were used for A2A and A3 ARs, respectively. Nonspecific binding was determined in the presence of 1 mM theophylline (A1AR) or […] R-PIA (A2A and A3 ARs). Ki values were calculated from competition curves by nonlinear curve fitting with the program SCTFIT [31].
(§2) CHO cells stably transfected with human ARs were grown adherently and maintained in Dulbecco’s Modified Eagles Medium with nutrient mixture F12 (DMEM/F12) without nucleosides, containing 10% fetal calf serum, penicillin (100 U/mL), streptomycin (100 μg/mL), L-glutamine (2 mM), and Geneticin (G-418, 0.2 mg/mL) at 37 °C in 5% CO2/95% air, as described earlier. For radioligand binding studies and measurement of adenylyl cyclase activity, crude membrane fractions were prepared from fresh or frozen cells with two different protocols described earlier. The determination of adenylyl cyclase activity followed the procedure described earlier. IC50 values for the inhibition of adenylyl cyclase stimulated (in the case of A2BAR) with 5 μM NECA were calculated with the Hill equation and converted to Ki values with the Cheng and Prusoff equation [32].
(§3) [^3H]CCPA (2-chloro-N^6-cyclopentylAdo) and [^3H]NECA (5′-N-ethylcarboxamidoAdo) were used as specific radioligands at A1ARand A2A / A3 ARs, respectively. Furthermore, the ability of the same compounds to inhibit NECA-stimulated adenylyl cyclase activity was evaluated at the A2BAR subtype. The results of the binding studies (A1, A2A, and A3 ARs) and functional data (A2BAR) are reported in Table 1 as Ki or IC50 values in nM, together with the data on the reference compounds 1–3.

human A1AR = target: T3, human A1AR (Homo sapiens, UniProt P30542); assay: Radioligand binding, displacement of [3H]CCPA at human A1AR in CHO cells; settings: [3H]-CCPA displacement, geometric mean with 95% confidence limits, read-out: Ki A1
T3 construct: expressed in transfected cells; host or cells: CHO cells, crude membrane fractions
T3 sequence (P30542 1-326): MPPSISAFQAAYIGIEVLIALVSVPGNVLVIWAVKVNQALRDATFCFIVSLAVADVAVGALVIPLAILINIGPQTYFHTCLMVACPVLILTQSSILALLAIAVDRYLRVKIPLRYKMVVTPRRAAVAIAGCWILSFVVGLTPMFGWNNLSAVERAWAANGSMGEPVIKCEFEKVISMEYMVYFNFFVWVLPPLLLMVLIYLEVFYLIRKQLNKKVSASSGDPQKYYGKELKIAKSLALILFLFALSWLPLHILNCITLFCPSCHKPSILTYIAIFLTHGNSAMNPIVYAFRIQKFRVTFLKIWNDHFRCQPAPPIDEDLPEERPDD
Procedure: as §1, §2, §3

human A2BAR = target: T4, human A2BAR (Homo sapiens, UniProt P29275); assay: Inhibition of NECA-stimulated adenylyl cyclase activity at human A2BAR; format: biochemical; settings: inhibition of NECA-stimulated AC activity, CHO cells expressing human A2BAR; geometric mean with 95% confidence limits; read-out: IC50 A2B
T4 construct: expressed in transfected cells; host or cells: CHO cells, crude membrane fractions
T4 sequence (P29275 1-332): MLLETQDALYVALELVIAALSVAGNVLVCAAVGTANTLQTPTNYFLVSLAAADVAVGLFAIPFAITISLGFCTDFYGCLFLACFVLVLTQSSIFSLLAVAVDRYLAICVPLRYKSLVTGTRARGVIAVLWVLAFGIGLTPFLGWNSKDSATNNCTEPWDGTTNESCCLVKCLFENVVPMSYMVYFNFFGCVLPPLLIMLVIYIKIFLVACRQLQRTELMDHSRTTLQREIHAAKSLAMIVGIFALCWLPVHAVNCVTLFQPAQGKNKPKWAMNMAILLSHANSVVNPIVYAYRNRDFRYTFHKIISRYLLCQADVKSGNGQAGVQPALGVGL
Procedure: as §2, §3

SMILES	Efficacy on catalepsy, preliminary studies ([1]; 5 mg/kg)	Effect on catalepsy induced by haloperidol [1]	Duration of anticataleptic effect [1]	Efficacy on catalepsy, preliminary studies ([1]; 1 and 3 mg/kg)	Ki (human A2AAR)	Ki (human A3AR [2])	Ki (human A3AR [3])	Ki (human A1AR)	IC50 (human A2BAR)
CCn1c(Br)nc2c(N)nc(OCCc3ccccc3)nc21 [Compound 1, 8-bromo-9-ethyl-2-phenetoxyadenine]	fully effective	significantly antagonized catalepsy	10 to 90 min	low efficacy on catalepsy	1.7 nM	1090 nM			
CCOc1nc2c(N)nc(OCCc3ccccc3)nc2n1CC [Compound 4, 8-ethoxy-9-ethyl-2-phenethoxyadenine]	fully effective	significantly antagonized catalepsy; also recorded: longer duration and a strong intensity	10 to 90 min	low efficacy on catalepsy			359 nM	86 nM	6510 nM
CCn1c(I)nc2c(N)nc(OCCc3ccccc3)nc21 [Compound 5, 9-ethyl-8-iodo-2-phenethoxy-9H-purin-6-amine]	fully effective	significantly antagonized catalepsy	≤ 60 min	low efficacy on catalepsy			489 nM	25 nM	719 nM
